# Laboratory results as given in patent publication US20240409560A1, “PYRIMIDINE TRICYCLIC DERIVATIVE AND PHARMACEUTICAL APPLICATION THEREOF” (CHIA TAI TIANQING PHARMACEUTICAL GROUP CO., LTD., priority 2021, published 2024).
# Experiments:
# sGC = target: T1, sGC (Homo sapiens, UniProt Q02153); assay: LNCap cell-based cGMP expression assay (HTRF); settings: minimum effective concentration to stimulate cGMP production (three times greater than the basal value) in lnCap cells; DETA-NO added
# T1 construct: endogenous in cells; host or cells: LNCaP cells (14th passage), no transfection described
# T1 sequence (Q02153 1-619): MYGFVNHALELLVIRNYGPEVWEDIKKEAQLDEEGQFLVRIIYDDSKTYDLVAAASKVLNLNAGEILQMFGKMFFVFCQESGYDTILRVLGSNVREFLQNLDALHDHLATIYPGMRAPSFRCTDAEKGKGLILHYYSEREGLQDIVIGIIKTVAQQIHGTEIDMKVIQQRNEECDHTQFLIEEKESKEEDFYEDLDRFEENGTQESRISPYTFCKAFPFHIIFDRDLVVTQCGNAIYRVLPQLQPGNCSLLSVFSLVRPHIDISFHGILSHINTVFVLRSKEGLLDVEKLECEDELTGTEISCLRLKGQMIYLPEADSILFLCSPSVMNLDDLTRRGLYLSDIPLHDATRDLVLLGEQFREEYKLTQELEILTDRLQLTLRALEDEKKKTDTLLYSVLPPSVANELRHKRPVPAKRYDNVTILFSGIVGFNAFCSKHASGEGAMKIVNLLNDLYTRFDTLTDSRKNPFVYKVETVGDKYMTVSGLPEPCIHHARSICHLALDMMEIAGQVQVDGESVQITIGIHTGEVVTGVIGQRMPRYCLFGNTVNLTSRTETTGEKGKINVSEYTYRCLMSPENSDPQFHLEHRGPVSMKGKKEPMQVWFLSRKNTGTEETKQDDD
# T1 sequence (Q02108 1-690 partner): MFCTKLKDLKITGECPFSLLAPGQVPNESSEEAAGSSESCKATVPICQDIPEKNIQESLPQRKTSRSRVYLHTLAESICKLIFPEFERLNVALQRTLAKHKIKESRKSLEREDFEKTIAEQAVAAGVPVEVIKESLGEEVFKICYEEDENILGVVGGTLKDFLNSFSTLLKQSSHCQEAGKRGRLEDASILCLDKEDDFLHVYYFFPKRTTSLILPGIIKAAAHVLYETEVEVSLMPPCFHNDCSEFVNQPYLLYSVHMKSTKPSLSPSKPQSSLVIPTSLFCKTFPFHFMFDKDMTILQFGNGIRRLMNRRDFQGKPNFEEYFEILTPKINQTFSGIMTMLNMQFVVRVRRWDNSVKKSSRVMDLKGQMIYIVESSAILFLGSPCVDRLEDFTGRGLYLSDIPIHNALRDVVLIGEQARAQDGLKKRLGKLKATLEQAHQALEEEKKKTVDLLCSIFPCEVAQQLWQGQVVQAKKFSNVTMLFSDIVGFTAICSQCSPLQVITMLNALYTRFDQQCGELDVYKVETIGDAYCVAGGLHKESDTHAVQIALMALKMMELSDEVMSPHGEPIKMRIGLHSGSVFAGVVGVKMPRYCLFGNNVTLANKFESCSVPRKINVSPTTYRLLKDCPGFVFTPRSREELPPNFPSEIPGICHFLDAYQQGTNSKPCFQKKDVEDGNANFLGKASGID
# Protocol: I. InCap Cell-Based cGMP Expression Assay
# • 10 g of BSA was dissolved in 100 mL of double distilled water (ddH2O) to give 10% BSA.
# • 10 mg of DETA-NO was weighed out and dissolved in 12.2 mL of double distilled water (ddH2O) to give 5 mM DETA-NO, which was aliquoted and cryopreserved in a freezer at −20° C.
# • a) To 1 mL of a lysis buffer was added 50 μL of cGMP-D2 (D2-labeled cyclic guanosine monophosphate), and the mixture was well mixed. • b) To 1 mL of a lysis buffer was added 50 μL of anti-cGMP cryptate (Eu^3+ cryptate-labeled anti-cyclic guanosine monophosphate antibody), and the mixture was well mixed.
# • (1) The compounds were diluted to 5 mM with DMSO, 10 μL of each of the compounds was transferred to a shallow well plate for Echo. • (2) The compounds were serially diluted with Echo. Each of the compounds was diluted to obtain 10 concentration gradients, and 50 nL of each compound at each concentration gradient was added to a 384 microwell plate.
# • (1) LNCap medium: RPMI1640+10% fetal bovine serum+1% […]. • (2) Phosphate buffered saline, pancreatin, and the medium used in the process of cell passaging were pre-heated in a water bath at 37° C. • (3) The cells (the 14th generation) were taken out of the 37° C. 5% CO2 incubator, and the old medium was pipetted off the culture flask. • (4) 5 mL of phosphate buffered saline was pipetted into the culture flask to rinse the cells, and then the liquid was discarded. • (5) 3 mL of pancreatin was pipetted into the culture flask. After the culture flask was shaken, the liquid was discarded, and the culture flask was placed in the incubator. • (6) After about 2 min, the culture flask was taken out. […] The cell suspension was transferred to a 50 mL centrifuge tube. • (7) 0.7 mL of the cell suspension was pipetted into a counter cup and the cells were counted on a ViCell XR. […]
# • (1) cGMP-D2 was transferred to the 384 microwell plate at 5 μL/well using Bravo. […] The mixtures were centrifuged at 1500 rpm for 1 min. • (3) The plate was incubated at room temperature for 1 h. • (4) 665/615 was read using envision. […]
# [1] = In vivo pharmacokinetic property study in male SD rats; settings: Sprague-Dawley, rat, plasma
# Protocol: Objective: This study was intended to determine the pharmacokinetic parameters of the compounds in male SD rats.
# Sprague Dawley rats (Male, 200-300 g, 7-9 weeks old, Shanghai SLAC)
# In the project, 4 male SD rats were used. One group of 2 SD rats were dosed by intravenous injection at 0.3 mg/kg, 0.15 mg/mL and another group of 2 SD rats were orally dosed at 1 mg/kg, 0.2 mg/mL. Plasma samples were collected at 0.083 h (the intravenous injection group only), 0.25 h, 0.5 h, 1 h, 2 h, 4 h, 6 h, 8 h, 12 h, and 24 h after the dosing and then subjected to LC-MS/MS analysis, and data were recorded. Relevant pharmacokinetic parameters were calculated using the Phoenix WinNonlin 6.3 software based on the recorded data.
# [2] = Tissue distribution study in rats, oral administration; type: in vivo, Sprague Dawley rats; settings: male SD rats, po 1 mg/kg; samples at 2, 6, 12 h
# Protocol: Objective: This study was intended to test the distribution ratio of the compounds in plasma, heart, cerebrospinal fluid, and brain tissue in the case of oral administration.
# Sprague Dawley Rats (Male, 200-300 g, 7-9 Weeks Old, Shanghai SLAC)
# In the project, 6 male SD rats were orally dosed at 1 mg/kg, 0.2 mg/mL. Samples of cerebrospinal fluid, brain, heart tissue, and plasma were collected at 2 h, 6 h, and 12 h after the dosing and then subjected to LC-MS/MS analysis, and data were recorded. Relevant pharmacokinetic parameters were calculated using the Phoenix WinNonlin 6.3 software based on the recorded data.
SMILES,MEC of the stimulating activity for sGC (sGC) [nM],clearance ([1]; iv 0.3 mg/kg) [mL/min/kg],half-life ([1]; iv 0.3 mg/kg) [h],"Vd ([1]; iv 0.3 mg/kg, read-out: Vdss) [L/kg]",bioavailability ([1]; po 1 mg/kg) [%],half-life ([1]; po 1 mg/kg) [h],"AUC0-last, heart [2]","AUC0-last, plasma [2]"
CO[C@]12C(=O)Nc3nc(-c4nn(CCC(F)(F)C(F)(F)F)c5ncc(F)cc45)nc(c31)NC(=O)C2(C)C [Compound 007],548,–,–,–,–,–,–,–
CC1(C)C(=O)Nc2nc(-c3nn(Cc4ccccc4F)c4ncc(F)cc34)nc3c2C1(O)C(=O)N3 (stereo not shown) [Compound 016],19.3,–,–,–,–,–,–,–
CO[C@@]12C(=O)Nc3nc(-c4nn(CCC(F)(F)C(F)(F)F)c5ncc(F)cc45)nc(c31)NC(=O)C2(C)C [Compound 006],214,4.58,6.28,2.36,65,6.7,6970 h*nmol/L or h*nmol/kg,1889 h*nmol/L or h*nmol/kg
